pIC50: −log10 of the molar value.
What was measured:
PPARγ = target: T1, PPARγ (UniProt P37231); assay: PPARγ ligand binding assay utilizing [3H]-BRL 49653 as the radioligand; conditions: concentration required to reduce specific binding by 50%
T1 construct: fused on or other part: GST tag fused to PPARgamma, used for capture on glutathione beads
T1 sequence (P37231 1-505): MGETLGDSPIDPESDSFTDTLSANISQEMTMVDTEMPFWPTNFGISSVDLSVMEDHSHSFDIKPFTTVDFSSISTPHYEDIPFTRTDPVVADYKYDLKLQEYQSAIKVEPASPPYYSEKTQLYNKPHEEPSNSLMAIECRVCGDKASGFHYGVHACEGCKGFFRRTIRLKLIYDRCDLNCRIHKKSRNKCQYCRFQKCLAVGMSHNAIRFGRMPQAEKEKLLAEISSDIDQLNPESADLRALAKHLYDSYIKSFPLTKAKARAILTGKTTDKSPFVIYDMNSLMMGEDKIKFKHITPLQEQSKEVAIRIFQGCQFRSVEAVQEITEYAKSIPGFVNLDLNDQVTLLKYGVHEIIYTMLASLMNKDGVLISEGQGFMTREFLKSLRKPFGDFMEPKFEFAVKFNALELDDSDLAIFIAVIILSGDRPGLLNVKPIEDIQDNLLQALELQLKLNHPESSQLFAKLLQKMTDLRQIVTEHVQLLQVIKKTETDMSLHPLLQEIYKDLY
From the text: The compounds for use according to the present invention can be evaluated for modulation of the PPARγ receptor using assays such as those described in Jiang, et al., Nature 391:82-86 (1998), Ricote, et al., Nature 391:79-82 (1998) and Lehmann, et al., J. Biol. Chem. 270(12): 12953-12956 (1995). Alternatively, the compounds for use according to the invention can be evaluated for their ability to displace radiolabeled BRL 49653 from a PPARγ-GST fusion protein as follows:
PPAR-γ-GST fusion protein (prepared according to standard procedures), [^3H]-BRL 49653 having 50 Ci/mmol specific activity, Polyfiltronics Unifilter 350 filtration plate and glutathione-Sepharose® beads (from Pharmacia: washed twice with 10× binding buffer in which BSA and DTI can be left out).
Binding buffer (10 mM Tris-HCl, pH 8.0, 50 mM KCl, 10 mM DTT, 0.02% BSA and 0.01% NP-40) is added in 80 microliter amounts to the wells of the filtration plate. The test compound is then added in 10 microliters of DMSO. The PPARy-GST fusion protein and radiolabeled BRL compound are premixed in binding buffer containing 10 mM DTT and added in 10 microliter amounts to the wells of the plate to provide final concentrations of 1 μg/well of PPAR-γ-GST fusion protein and 10 nM [^3H]-BRL 49653 compound. The plate is incubated for 15 minutes. Glutathione-agarose bead is added in 50 μL of binding buffer, and the plate is vigorously shaken for one hour. The plate is washed four times with 200 μL/well of binding buffer (without BSA and DTT). The bottom of the plate is sealed and 200 μL/well of scintillation cocktail is added. The top of the plate is then sealed and the radioactivity is determined. Formulation and Administration of the Compounds (Compositions) for Use According to the Invention

KK-Ay mice = assay: anti-diabetic efficacy in KK-Ay mice (change in serum glucose levels); type: in vivo; conditions: 0.018% (30 mg/kg) dietary admixture in powdered diet, change in serum glucose levels compared to untreated control animals
Experimental: Selected compounds were administered to KK-Ay mice as a 0.018% (30 mg/kg) dietary admixture in powdered diet and evaluated for anti-diabetic efficacy as described (T. Shibata, K. Matsui, K. Nagao, H. Shinkai, F. Yonemori and K. Wakitani 1999; European Journal of Pharmacology 364:211-219). The change in serum glucose levels compared to untreated control animals is exemplified in Table 39.

**Q.** For `O=S(=O)(Nc1cc(Cl)c(Sc2cnc3ccccc3c2)c(Cl)c1)c1ccc(C(F)(F)F)cc1Cl` [Example 87.3], which melting point is on record?
**A.** The melting point was 225.1 °C.

**Q.** What about the pIC50 (PPARγ) of the same compound?
**A.** Its pIC50 is > 6.00.

**Q.** What about the “KKAy Glucose” value (KK-Ay mice) of the same compound?
**A.** Its value is “++ ((++) glucose lowering >20%)”.

**Q.** With `O=S(=O)(Nc1cc(Cl)c(Oc2nc3ccc(Cl)cc3s2)c(Cl)c1)c1ccc(C(F)(F)F)cc1Cl` [Example 365, 2-Chloro-N-[3,5-dichloro-4-(6-chloro-benzothiazol-2-yloxy)-phenyl]-4-trifluoromethyl-benzenesulfonamide] as the compound, how does the melting point read?
**A.** Its melting point is 82 to 84 °C.

**Q.** What about the pIC50 (PPARγ) of the same compound?
**A.** Its pIC50 is > 5.00.

**Q.** And the “KKAy Glucose” value (KK-Ay mice)?
**A.** Its value is “++ ((++) glucose lowering >20%)”.

Reference: patent publication US20050250820A1, “Therapeutic modulation of PPARgamma activity” (Amgen Inc., priority 2004, published 2005)
